From patent US20250051694A1, “BAR COMPOSITION HAVING ENHANCED ANTIMICROBIAL ACTIVITY” (Conopco, Inc., d/b/a UNILEVER, priority 2021, published 2025)

Test system: S. aureus ATCC 6538
Test: Time-kill assay (adapted from ASTM E2315-16), Gram positive
Assay type: cell-based
Details: Table II, simulated 10% slurry
Protocol: Aqueous slurries were prepared whereby gratings from the bars made in the Samples of Table I were mixed with water to form a test solution containing 10% by weight of the initial bar component. In the second method, raw bar components, as depicted in the Samples in Table II, were mixed with water to form a test solution containing a total of 10% raw bar component to simulate an aqueous slurry of a bar composition. For each sample, aqueous slurries were mixed at 50° C. to simulate customary consumer washing conditions.
As to the microbes, E. coli ATCC 10536 and S. aureus ATCC 6538 were used in this study to represent Gram negative and Gram positive bacteria, respectively. The bacteria were stored at −80° C. Fresh isolates were cultured twice on Tryptic Soy Agar plates for 24 hours at 37° C. before each experiment.
Test solutions were prepared. In the first method and for the aqueous slurries made from the bar compositions described in Table I, a composition (typically containing up to 15% surfactant) was mixed with water to form a test solution containing 10% weight percent of the initial formulation. In the second method and for the raw ingredients combined in Table II, the same were mixed with water at levels that simulate a 10% dilution of the slurries. In each assessment, test solutions were heated and mixed at […]
The log reduction was calculated using the formula: […]

## CC(O)C(=O)O (stereo not shown) [lactic acid]
  S. aureus Log Reduction (46° C., 30 sec): performed poorly
